Key:
[1] = test system: BVDV; assay: Single-detergent treatment of IVIG-containing liquid, BVDV inactivation; format: cell-based, bovine viral diarrhea virus; conditions: single detergent 0.1%±0.01%, 17°C±1°C, within 10 minutes
[2] = test system: BVDV; assay: Single-detergent treatment of pdFVIII-containing liquid, BVDV inactivation; format: cell-based, bovine viral diarrhea virus; conditions: single detergent 0.1%±0.01%, 23°C±1°C, within 5 minutes
[3] = test system: BVDV; assay: Single-detergent treatment of buffer containing HSA, BVDV inactivation; format: cell-based, bovine viral diarrhea virus; conditions: 14°C±1°C; for virus reduction factor (RF): single detergent 0.1%±0.01%, within 5 minutes; for inactivation kinetics compared with Triton X-100: FIG. 4A, single detergent 0.09%-0.11%
[4] = test system: PRV; format: cell-based, pseudorabies virus; conditions: IVIG-containing liquid, 17°C±1°C
[5] = test system: X-MuLV; assay: S/D treatment of HSA-containing liquid, X-MuLV inactivation; format: cell-based, xenotropic murine leukemia virus; conditions: S/D mixture with PS80 and TnBP, 0.1% detergent
Procedure: FIG. 2: Virus inactivation efficiency of low concentrations of 4-tert-octylbenzyl alcohol polyethoxylate in S/D treatment of human serum albumin (HSA)-containing liquid at 1° C.±1° C. A three-component mixture was used to give final concentrations of 0.08%-0.1% 4-tert-octylbenzyl alcohol polyethoxylate, 0.02%-0.03% Polysorbate 80, 0.02%-0.03% TnBP (side-by-side comparison with same concentration of Triton X-100). Virus inactivation over time is indicated by the virus reduction factor (RF) for two runs with X-MuLV (A and B, respectively). Virus inactivation of S/D treatment using 4-tert-octylbenzyl alcohol polyethoxylate was compared to virus inactivation of S/D treatment using Triton X-100 (“TX-100”). Filled symbols show values with remaining infectivity, non-filled symbols show reduction factors below the limit of detection.
FIG. 3: Virus inactivation efficiency of low concentrations of 4-tert-octylbenzyl alcohol polyethoxylate in S/D treatment of HSA-containing liquid at 19° C.±1° C. A three-component mixture was used to give final concentrations of 0.08%-0.1% 4-tert-octylbenzyl alcohol polyethoxylate, 0.02%-0.03% Polysorbate 80, 0.02%-0.03% TnBP (side-by-side comparison with same concentration of Triton X-100). Virus inactivation over time is indicated by the virus reduction factor (RF) for two runs with X-MuLV (A and B, respectively). Virus inactivation of S/D treatment using 4-tert-octylbenzyl alcohol polyethoxylate was compared to virus inactivation of S/D treatment using Triton X-100 (“TX-100”). Filled symbols show values with remaining infectivity, non-filled symbols show reduction factors below the limit of detection.
The experiments were performed as described for Example 3 of WO 2019/086463. However, for the S/D treatment an S/D mixture comprising 4-tert-octylbenzyl alcohol polyethoxylate was tested and compared to an S/D mixture comprising Triton X-100. The composition of the S/D mixture comprising Triton X-100 was prepared as described in Example 3 of WO 2019/086463. […]

“4-(1,1,3,3-tetramethylbutyl)phenol, ethoxylated [Triton X-100]” was tested, and the “virus reduction factor (RF)” value [1] was “around 5”, the “virus reduction factor (RF)” value [2] was “around 5” and the “virus reduction factor (RF)” value [3] was “around 5”.

With “4-tert-octylbenzyl alcohol polyethoxylate” the “virus reduction factor (RF)” value [1] was “around 5”, the “virus reduction factor (RF)” value [2] was “around 5” and the “inactivation kinetics compared with Triton X-100” value ([4]; FIG. 1A, S/D treatment, 0.04%-0.06% detergent) was “identical inactivation kinetics”. For the same substance, the “virus reduction factor (RF)” value ([4]; S/D mixture with PS80 and TnBP, 0.05% w/w detergent, within 1-2 minutes) was “around 4”, the “virus reduction factor (RF)” value ([5]; 1°C±1°C, within 10 minutes) was “over 2” and the “virus reduction factor (RF)” value ([5]; 19°C±1°C, within 10 minutes) was “over 2”. The “virus reduction factor (RF)” value ([5]; 19°C±1°C, within 30 min) was “around 4”, the “inactivation kinetics compared with Triton X-100” value [3] was “same inactivation kinetics as Triton X-100” and the “virus reduction factor (RF)” value [3] was “around 5”.

With “4-tert-octylcyclohexyl alcohol polyethoxylate [Triton X-100 reduced]” the “virus reduction factor (RF)” value [1] was “around 5”, the “virus reduction factor (RF)” value [2] was “around 5” and the “inactivation kinetics compared with Triton X-100” value [3] was “same inactivation kinetics as Triton X-100”. The “virus reduction factor (RF)” value [3] was “around 5”.

For “n-hexadecyl alcohol polyethoxylate [Brij C10]”, the “virus reduction factor (RF)” value [3] was “around 5”.

Source: patent US20240010590A1 (priority 2020, published 2024)
